This assay concerns hepatitis C virus replicon NK-R2AN in Huh-7 cells. Briefly: microbe, parasite or virus in culture. The following applies: Huh-7 cells containing replicon NK-R2AN, 48 hours, renilla luciferase activity relative to protein amount, read-out: HCV replicon inhibitory activity (EC50). The format is cell-based. (In general: A replicon is a self-replicating genome or part of one, used to study replication in cells.)

In general, EC50 refers to the concentration that produces a half-maximal response.

In the case of `Cc1sc2nc(N3CCN(C(=O)c4ccccn4)CC3)nc(Nc3ccc(N4CCOCC4)cc3)c2c1C` [Example 1, 4-[5,6-dimethyl-4-(4-morpholin-4-yl-phenylamino)-thieno[2,3-d]pyrimidin-2-yl]-piperazin-1-yl-pyridin-2-yl-methanone], the EC50 stood at 680 nM.

As to `Cc1sc2nc(N3CCN(C(=O)c4cccnc4)CC3)nc(Nc3ccc(N4CCOCC4)cc3)c2c1C` [Example 2, 4-[5,6-dimethyl-4-(4-morpholin-4-yl-phenylamino)-thieno[2,3-d]pyrimidin-2-yl]-piperazin-1-yl-pyridin-3-yl-methanone], the EC50 worked out at 450 nM. With `Cc1sc2nc(N3CCN(C(=O)c4ccncc4)CC3)nc(Nc3ccc(N4CCOCC4)cc3)c2c1C` [Example 3, 4-[5,6-dimethyl-4-(4-morpholin-4-yl-phenylamino)-thieno[2,3-d]pyrimidin-2-yl]-piperazin-1-yl-pyridin-4-yl-methanone] the figure was 480 nM. On to `Cc1sc2nc(N3CCN(C(=O)c4ccccn4)CC3)nc(Nc3ccc(N4CCOCC4)nc3)c2c1C` [Example 4, 4-[5,6-dimethyl-4-(6-morpholinopyridin-3-ylamino)-thieno[2,3-d]pyrimidin-2-yl]-piperazin-1-yl-pyridin-2-yl-methanone], for which the concentration giving a half-maximal response (EC50) turned out to be 710 nM.

As to `Cc1sc2nc(N3CCN(C(=O)c4cccnc4)CC3)nc(Nc3ccc(N4CCOCC4)nc3)c2c1C` [Example 5, 4-[5,6-dimethyl-4-(6-morpholinopyridin-3-ylamino)-thieno[2,3-d]pyrimidin-2-yl]-piperazin-1-yl-pyridin-3-yl-methanone], the EC50 worked out at 510 nM.

The record behind these values is patent US7816351B2, “5,6-dimethylthieno[2,3-di] pyrimidine derivatives, the preparation method thereof and the pharmaceutical composition comprising the same for anti-virus” (Equispharm Co., Ltd, priority 2005, dated 2010).
